Values quoted from earlier work, collected in patent US6417191B1, “Synergistic combinations of zidovudine, 1592U89 and 3TC” (GlaxoSmithKline, priority 1995, dated 2002).
Like-named read-outs stand apart in the source and are kept apart here.

Experiments:
[1] = plasma, patients, therapeutic doses of each drug as a single agent

Row | Peak Level (in vivo) | Trough Level (in vivo) | Peak Level [1] | Trough Level [1] | Compound | activity against HIV (HIV)
1 | – | – | – | – | Nc1ccn(C2CSC(CO)O2)c(=O)n1 (racemic) [BCH-189, 4-amino-1-(2-hydroxymethyl-1,3-oxathiolan-5-yl)-(1H)-pyrimidin-2-one] | anti-HIV activity
2 | 10 µM | 0.5 µM | – | – | Nc1nc(=O)n([C@@H]2CS[C@H](CO)O2)cc1F (relative stereo) [FTC, (2R,cis)-4-amino-5-fluoro-1-(2-hydroxymethyl-1,3-oxathiolan-5-yl)-(1H)-pyrimidin-2-one] | –
3 | – | – | 9 µM | 0.7 µM | Nc1ccn([C@@H]2CS[C@H](CO)O2)c(=O)n1 (single isomer, unassigned) [3TC] | –
4 | 5 µM | 0.4 µM | – | – | Cc1cn([C@H]2C[C@H](N=[N+]=[N-])[C@@H](CO)O2)c(=O)[nH]c1=O [zidovudine, 3′-azido-3′-deoxythymidine] | –

Row | Compound | Peak Level (in vivo) | Trough Level (in vivo) | Peak Level [1] | Trough Level [1] | activity against HIV (HIV)
5 | Nc1nc(NC2CC2)c2ncn([C@H]3C=C[C@@H](CO)C3)c2n1 (relative stereo) [1592U89, (1S,4R)-cis-4-[2-amino-6-(cyclopropylamino)-9H-purin-9-yl]-2-cyclopentene-1-methanol] | 3.5 µM | 0.1 µM | – | – | potent activity against HIV
